According to paper PMC4474554 (PLoS ONE, 2015):
Where “and” joins values, the source holds several entries; their conditions need not be identical. Equal entries are not always repeated. Entries after “also recorded” stand apart in the source; their conditions may differ. Where two headings read alike, the source gives them in different places.

Legend:
HCC827 = assay type: cell-based
Description: Drug sensitivity was determined by a modified MTS assay with CellTiter 96 AQueous One Solution Reagent (Promega, Madison, WI). Cells were generally seeded on 96-well plates at a density that would yield 80% confluence by the completion of the experiment, varying by each cell line from 3000 to 4000 per well. […] After that, MTS dye was added to each well. The cultures were incubated for another 1 hour at 37°C in a humidified atmosphere with 5% CO2. Optical densities of samples were measured at 490 nm using Immuno Mini NJ-2300 (Nalge Nunc International KK, Rochester, NY). Mean optical density at each drug concentration was calculated after discarding the highest and lowest values. […] IC50 values were expressed as mean and standard deviations. The assays were repeated until the standard deviation became less than the mean.

PC-9 xenograft = PC-9 xenograft mouse model; assay type: in vivo, BALB/c-nu/nu female nude mice; details: oral, once a day, 14 days, 30, 60 and 90 mg/kg, dose-dependent
Description: (§1) In this experiment, we used BALB/c-nu/nu female nude mice at 4–6 weeks of age that were purchased from Charles River Laboratories Japan, Inc (Yokohama, Japan). They were maintained under specific-pathogen-free conditions in accordance with the guidelines of the Animal Care and Use Committee at Okayama University. […] Every three days, body weight of the mice and the major axis and minor axis of each tumor were measured and calculated tumor volume using the following formula; (major axis) × (minor axis)^2 × 1/2 [37, 38]. For the 14 days, tumor volume, tumor growth rate and the body weight were analyzed as an average of the each group.

[1] = Body weight / side effects in xenograft mice; assay type: in vivo, BALB/c-nu/nu female nude mice; details: 14 days, nude mice with xenografts
Description: as §1

FAK = tested on: FAK; set-up: method as in earlier work; details: updated data; cited from earlier work
Pyk2 = tested on: Pyk2; set-up: method as in earlier work; details: updated data; cited from earlier work
c-Src = details: updated data; cited from earlier work
Lck = tested on: Lck; set-up: method as in earlier work; details: updated data; cited from earlier work
ZAP-70 = tested on: ZAP-70; set-up: method as in earlier work; details: updated data; cited from earlier work
KDR = tested on: KDR; set-up: method as in earlier work; details: updated data; cited from earlier work
Flt-1 = tested on: Flt-1; set-up: method as in earlier work; details: updated data; cited from earlier work
FGFR-1 = details: updated data; cited from earlier work
FGFR-3 (K650E) = tested on: FGFR-3 (K650E); set-up: method as in earlier work; details: updated data; cited from earlier work
c-Abl = tested on: c-Abl; set-up: method as in earlier work; details: updated data; cited from earlier work
Ret (M918T) = tested on: Ret (M918T); set-up: method as in earlier work; details: updated data; cited from earlier work
JAK-2 = tested on: JAK-2; set-up: method as in earlier work; details: updated data; cited from earlier work
CDK1/cyclin B = tested on: CDK1/cyclin B; set-up: method as in earlier work; details: updated data; cited from earlier work
c-Raf = tested on: c-Raf; set-up: method as in earlier work; details: updated data; cited from earlier work
PDK1 = tested on: PDK1; set-up: method as in earlier work; details: updated data; cited from earlier work
PKB/AKT = tested on: PKB/AKT; set-up: method as in earlier work; details: updated data; cited from earlier work
RPC-9 = assay: MTS assay, RPC-9
MKN45 = assay: MTS assay, MKN45
Calu-3 = assay: MTS assay, Calu-3
SK-BR-3 = assay: MTS assay, SK-BR-3
NCI-H3255 = assay: MTS assay, NCI-H3255
NCI-H1395 = assay: MTS assay, NCI-H1395
NCI-H1648 = assay: MTS assay, NCI-H1648
NCI-H1819 = assay: MTS assay, NCI-H1819

With `CNC(=O)c1ccccc1Nc1nc(Nc2ccc(N3CCOCC3)cc2OC)ncc1Cl` [TAE226] the IC50 (HCC827; HCC827, EGFR Exon 19 del (E746-A750), MTS, TAE226 48 hours, gefitinib 72 hours, read-out: IC50 (μM) (mean ± SD)) was 0.086 ± 0.01 µM, the IC50 (HCC827; HCC827, independent MTS assays, read-out: each IC50) was 0.061 µM and 0.095 µM and 0.09 µM and 0.1 µM and the “tumor volume / tumor growth compared with vehicle-treated mice” value (PC-9 xenograft) was “significantly decreased; also recorded: significantly inhibited”. The “obvious side effects, including the loss of body weight” value ([1]; 30mg/kg or 60mg/kg oral) was “did not occur”, the body weight ([1]; 90 mg/kg oral) was “loss of body weight was observed” and the IC50 (FAK) was 0.0055 µM. The IC50 (Pyk2) was 0.04 µM, the IC50 (c-Src) was 0.91 µM and the IC50 (Lck) was […]. For the same molecule, the IC50 (ZAP-70) was 7.7 µM, the IC50 (KDR) was […] and the IC50 (Flt-1) was […]. The IC50 (FGFR-1) was […], the IC50 (FGFR-3 (K650E)) was […] and the IC50 (c-Abl) was 5.9 µM. For the same molecule, the IC50 (Ret (M918T)) was […], the IC50 (JAK-2) was 0.84 µM and the IC50 (CDK1/cyclin B) was 0.54 µM. For the same molecule, the IC50 (c-Raf) was greater than 10 µM, the IC50 (PDK1) was greater than 10 µM and the IC50 (PKB/AKT) was greater than 10 µM. The IC50 (RPC-9; read-out: IC50 (μM) (mean ± SD), RPC-9, EGFR Exon 19 del (E746-A750) + T790M, MTS, TAE226 48 hours, gefitinib 72 hours) was 0.31 ± 0.03 µM, the IC50 (RPC-9; read-out: each IC50, RPC-9, independent MTS assays) was 0.35 µM and 0.33 µM and 0.28 µM and 0.27 µM and the IC50 (MKN45; read-out: IC50 (μM) (mean ± SD), MKN45 (gastric cancer), MET amplification, MTS, TAE226 48 hours) was 1.1 ± 0.06 µM. For the same molecule, the IC50 (MKN45; read-out: each IC50, MKN45, independent MTS assays) was 1.04 µM and 1.16 µM, the IC50 (Calu-3; read-out: IC50 (μM) (mean ± SD), Calu-3, HER2 amplification, MTS, TAE226 48 hours, gefitinib 72 hours) was 4.1 ± 0.37 µM and the IC50 (Calu-3; read-out: each IC50, Calu-3, independent MTS assays) was 4.5 µM and 3.8 µM. The IC50 (SK-BR-3; read-out: IC50 (μM) (mean ± SD), SK-BR-3 (breast cancer), HER2 amplification, MTS, TAE226 48 hours) was 35.1 ± 0.53 µM, the IC50 (SK-BR-3; read-out: each IC50, SK-BR-3, independent MTS assays) was 34.6 µM and 35.6 µM and the IC50 (NCI-H3255; read-out: IC50 (μM) (mean ± SD), NCI-H3255, EGFR Exon 21 (L858R), MTS, TAE226 48 hours, gefitinib 72 hours) was 0.12 ± 0.005 µM. The IC50 (NCI-H3255; read-out: each IC50, NCI-H3255, independent MTS assays) was 0.12 µM and 0.13 µM, the IC50 (NCI-H3255; read-out: mean IC50, NCI-H3255, mean of independent MTS assays) was 0.12 µM and the IC50 (NCI-H1395; read-out: IC50 (μM) (mean ± SD), NCI-H1395, BRAF Exon 11 (G469A), MTS, TAE226 48 hours) was […]. The IC50 (NCI-H1395; read-out: each IC50, NCI-H1395, independent MTS assays) was […], the IC50 (NCI-H1395; read-out: mean IC50, NCI-H1395, mean of independent MTS assays) was […] and the IC50 (NCI-H1648; read-out: IC50 (μM) (mean ± SD), NCI-H1648, HER2 amplification, MTS, TAE226 48 hours, gefitinib 72 hours) was 1.7 ± 0.07 µM. For the same molecule, the IC50 (NCI-H1648; read-out: each IC50, NCI-H1648, independent MTS assays) was 1.7 µM and 1.8 µM, the IC50 (NCI-H1648; read-out: mean IC50, NCI-H1648, mean of independent MTS assays) was 1.7 µM and the IC50 (NCI-H1819; read-out: IC50 (μM) (mean ± SD), NCI-H1819, HER2 amplification, MTS, TAE226 48 hours, gefitinib 72 hours) was 3.8 ± 0.4 µM. The IC50 (NCI-H1819; read-out: each IC50, NCI-H1819, independent MTS assays) was 4 µM and 3.2 µM and 4.1 µM.
